Measurements reported in PubChem BioAssay AID256 (DTP/NCI, 2004).
Several values for one entry are separate records, joined by “and”; a condition that tells them apart may be missing. Equal values may be shown once. Inconclusive results and toxic doses are left out.

Test system: CD2F1 mice, L1210 leukemia ip, survival T/C
Experiment: NCI In Vivo Anticancer Drug Screen. Data for tumor model L1210 Leukemia (intraperitoneal) in CD2F1 (CDF1) mice
Conditions: higher = longer survival
How it was run: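 Transplantable tumor in mice; compound-treated vs vehicle-treated groups. Read-out = treated/control ratio of the measured endpoint.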

[1] = endpoint: mean survival time, dose: 25.0 mg/kg/injection, schedule: Q01DX009 (ip), vehicle: saline with Tween-80
[2] = endpoint: mean survival time, dose: 100.0 mg/kg/injection, schedule: Q04DX003 (ip), vehicle: saline with Tween-80
[3] = endpoint: mean survival time, dose: 200.0 mg/kg/injection, schedule: Q04DX003 (ip), vehicle: saline with Tween-80
[4] = endpoint: mean survival time, dose: 100.0 mg/kg/injection, schedule: Q01DX009 (ip), vehicle: saline with Tween-80
[5] = endpoint: mean survival time, dose: 200.0 mg/kg/injection, schedule: Q01DX009 (ip), vehicle: saline with Tween-80
[6] = endpoint: mean survival time, dose: 400.0 mg/kg/injection, schedule: Q01DX009 (ip), vehicle: saline with Tween-80
[7] = endpoint: mean survival time, dose: 100.0 mg/kg/injection, schedule: Q04DX003 (ip), vehicle: saline
[8] = endpoint: mean survival time, dose: 50.0 mg/kg/injection, schedule: Q01DX009 (ip), vehicle: saline with Tween-80
[9] = endpoint: mean survival time, dose: 100.0 mg/kg/injection, schedule: Q01DX001 (ip), vehicle: saline
[10] = endpoint: mean survival time, dose: 400.0 mg/kg/injection, schedule: Q04DX003 (ip), vehicle: saline with Tween-80
[11] = endpoint: mean survival time, dose: 12.5 mg/kg/injection, schedule: Q01DX005 (ip), vehicle: distilled water + Tween-80
[12] = endpoint: mean survival time, dose: 25.0 mg/kg/injection, schedule: Q01DX005 (ip), vehicle: distilled water + Tween-80
[13] = endpoint: mean survival time, dose: 50.0 mg/kg/injection, schedule: Q01DX005 (ip), vehicle: distilled water + Tween-80
[14] = endpoint: mean survival time, dose: 100.0 mg/kg/injection, schedule: Q01DX005 (ip), vehicle: distilled water + Tween-80
[15] = endpoint: mean survival time, dose: 200.0 mg/kg/injection, schedule: Q01DX001 (ip), vehicle: saline
[16] = endpoint: mean survival time, dose: 400.0 mg/kg/injection, schedule: Q01DX001 (ip), vehicle: saline
[17] = endpoint: mean survival time, dose: 50.0 mg/kg/injection, schedule: Q01DX001 (ip), vehicle: saline

CCCN(CCC)C(=O)[S-].CCCN(CCC)C(=O)[S-].[Ni+2]
T/C (endpoint: mean survival time, dose: 6.25 mg/kg/injection, schedule: Q01DX009 (ip), vehicle: saline with Tween-80): 95 % of control
T/C (endpoint: mean survival time, dose: 6.25 mg/kg/injection, schedule: Q04DX003 (ip), vehicle: saline sonified): 99 % of control
T/C (endpoint: mean survival time, dose: 12.5 mg/kg/injection, schedule: Q01DX009 (ip), vehicle: saline with Tween-80): 106 % of control
T/C (endpoint: mean survival time, dose: 12.5 mg/kg/injection, schedule: Q04DX003 (ip), vehicle: saline sonified): 97 % of control
T/C [1]: 106 % of control
T/C (endpoint: mean survival time, dose: 25.0 mg/kg/injection, schedule: Q04DX003 (ip), vehicle: saline sonified): 103 % of control

Cc1c2ccccc2c(CSCCC(N)C(=O)O)c2ccc3ccccc3c12 (stereo not given)
T/C [2]: 96 % of control
T/C [3]: 87 % of control

Cc1cccc(Cl)c1NC(=O)Nc1ccc(C(=O)O)c(O)c1
T/C [4]: 97 % of control
T/C [5]: 103 % of control
T/C [6]: 114 % of control

COc1cc2c(cc1OC)C(CCN)=NCC2
T/C (endpoint: mean survival time, dose: 25.0 mg/kg/injection, schedule: Q01DX009 (ip), vehicle: saline sonified): 98 % of control
T/C (endpoint: mean survival time, dose: 50.0 mg/kg/injection, schedule: Q01DX009 (ip), vehicle: saline sonified): 98 % of control
T/C (endpoint: mean survival time, dose: 100.0 mg/kg/injection, schedule: Q01DX009 (ip), vehicle: saline sonified): 93 % of control
T/C [7]: 97 % of control

CCOC(=O)c1ccc(N(CCO)CCO)cc1
T/C (endpoint: mean survival time, dose: 75.0 mg/kg/injection, schedule: Q01DX001 (ip), vehicle: other): 94 % of control
T/C (endpoint: mean survival time, dose: 150.0 mg/kg/injection, schedule: Q01DX001 (ip), vehicle: other): 97 % of control
T/C (endpoint: mean survival time, dose: 300.0 mg/kg/injection, schedule: Q01DX001 (ip), vehicle: other): 102 % of control

C/C=C\c1ccc(OCCOC(=O)Nc2ccc(C)cc2C)c(OC)c1
T/C [8]: 104 % of control
T/C [4]: 96 % of control
T/C [5]: 93 % of control

COC(=O)C(NC(=O)OCc1ccccc1)C(=O)OC
T/C [4]: 105 % of control
T/C [5]: 107 % of control
T/C [6]: 112 % of control

c1c2c(cc3c1OCO3)CNCC2
T/C [9]: 102 % of control

CCCCCCCCCCCCCCNC(=O)C[N+](C)(C)Cc1ccccc1
T/C (endpoint: mean survival time, dose: 0.25 mg/kg/injection, schedule: Q01DX009 (ip), vehicle: saline sonified): 101 % of control
T/C (endpoint: mean survival time, dose: 0.5 mg/kg/injection, schedule: Q01DX009 (ip), vehicle: saline sonified): 95 % of control
T/C (endpoint: mean survival time, dose: 1.0 mg/kg/injection, schedule: Q01DX009 (ip), vehicle: saline sonified): 95 % of control
T/C (endpoint: mean survival time, dose: 5.0 mg/kg/injection, schedule: Q04DX003 (ip), vehicle: saline): 96 % of control
T/C (endpoint: mean survival time, dose: 10.0 mg/kg/injection, schedule: Q04DX003 (ip), vehicle: saline): 96 % of control

CC(=O)OC(c1ccc([N+](=O)[O-])cc1)c1ccccn1 (stereo not given)
T/C (endpoint: mean survival time, dose: 100.0 mg/kg/injection, schedule: Q04DX003 (ip), vehicle: other): 96 % of control
T/C (endpoint: mean survival time, dose: 200.0 mg/kg/injection, schedule: Q04DX003 (ip), vehicle: other): 93 % of control
T/C (endpoint: mean survival time, dose: 400.0 mg/kg/injection, schedule: Q04DX003 (ip), vehicle: other): 93 % of control

NS(=O)(=O)c1ccc(Cl)c(Cl)c1
T/C [4]: 108 % of control
T/C [5]: 111 % of control

CC(C)CCNc1ncnc2c1cnn2C
T/C (endpoint: mean survival time, dose: 25.0 mg/kg/injection, schedule: Q01DX009 (ip), vehicle: saline): 97 % of control
T/C (endpoint: mean survival time, dose: 50.0 mg/kg/injection, schedule: Q01DX009 (ip), vehicle: saline): 108 % of control
T/C (endpoint: mean survival time, dose: 100.0 mg/kg/injection, schedule: Q01DX009 (ip), vehicle: saline): 86 % of control
T/C [7]: 116 % of control

CN1CC(CO)C(O)C2c3cccc4[nH]cc(c34)CC21 (stereo not given)
T/C (endpoint: median survival time, dose: 25.0 mg/kg/injection, schedule: Q04DX003 (ip), vehicle: saline with Tween-80): 100 % of control
T/C (endpoint: median survival time, dose: 50.0 mg/kg/injection, schedule: Q04DX003 (ip), vehicle: saline with Tween-80): 100 % of control
T/C (endpoint: median survival time, dose: 100.0 mg/kg/injection, schedule: Q04DX003 (ip), vehicle: saline with Tween-80): 100 % of control
T/C (endpoint: median survival time, dose: 200.0 mg/kg/injection, schedule: Q04DX003 (ip), vehicle: saline with Tween-80): 100 % of control

O=C(c1ccccc1Cl)n1c2c(c3ccccc31)CCCC2
T/C [4]: 110 % of control
T/C [2]: 101 % of control
T/C [5]: 103 % of control
T/C [3]: 95 % of control
T/C [6]: 96 % of control
T/C [10]: 97 % of control

O=C(OCC1OC(n2nc(SCc3ccccc3)c(=O)[nH]c2=O)C(OC(=O)c2ccccc2)C1OC(=O)c1ccccc1)c1ccccc1 (stereo not given)
T/C [11]: 93 % of control
T/C [12]: 95 % of control
T/C [13]: 97 % of control
T/C [14]: 88 % of control

CCCOP(=S)(NCCOC)OCCC
T/C [2]: 103 % of control
T/C [3]: 101 % of control
T/C [10]: 103 % of control

Nc1ccc(Cl)cc1C(=O)c1ccc[nH]1
T/C [9]: 101 % of control
T/C [7]: 94 % of control
T/C [15]: 98 % of control
T/C (endpoint: mean survival time, dose: 200.0 mg/kg/injection, schedule: Q04DX003 (ip), vehicle: saline): 94 % of control
T/C [16]: 93 % of control
T/C (endpoint: mean survival time, dose: 400.0 mg/kg/injection, schedule: Q04DX003 (ip), vehicle: saline): 94 % of control

C=CC[n+]1ccccc1Cc1ccccc1
T/C (endpoint: mean survival time, dose: 25.0 mg/kg/injection, schedule: Q01DX001 (ip), vehicle: saline): 98 % of control
T/C [17]: 95 % of control

COc1cccc2c1C(=O)c1c(O)c3c(c(O)c1C2=O)C[C@@](O)(C(=O)CO)C[C@@H]3OC1CC(OC(C)=O)C(OC(C)=O)C(C)O1 (stereo not given in full)
T/C (endpoint: mean survival time, dose: 1.56 mg/kg/injection, schedule: Q01DX009 (ip), vehicle: distilled water + Tween-80): 115 % of control
T/C (endpoint: mean survival time, dose: 3.12 mg/kg/injection, schedule: Q01DX009 (ip), vehicle: distilled water + Tween-80): 122 % of control
T/C (endpoint: mean survival time, dose: 6.25 mg/kg/injection, schedule: Q01DX009 (ip), vehicle: distilled water + Tween-80): 167 % of control
T/C (endpoint: mean survival time, dose: 12.5 mg/kg/injection, schedule: Q01DX009 (ip), vehicle: distilled water + Tween-80): 153 % of control and 203 % of control
T/C (endpoint: mean survival time, dose: 25.0 mg/kg/injection, schedule: Q01DX009 (ip), vehicle: distilled water + Tween-80): 93 % of control and 100 % of control
T/C (endpoint: median survival time, dose: 1.56 mg/kg/injection, schedule: Q01DX009 (ip), vehicle: distilled water + Tween-80): 113 % of control
T/C (endpoint: median survival time, dose: 6.25 mg/kg/injection, schedule: Q01DX009 (ip), vehicle: distilled water + Tween-80): 158 % of control and 176 % of control
T/C (endpoint: median survival time, dose: 12.5 mg/kg/injection, schedule: Q01DX009 (ip), vehicle: distilled water + Tween-80): 226 % of control and 250 % of control
T/C (endpoint: median survival time, dose: 25.0 mg/kg/injection, schedule: Q01DX009 (ip), vehicle: distilled water + Tween-80): 120 % of control and 95 % of control

Nc1nc2c(ncn2C2CC(O)C(CO)O2)c(=O)n1N (stereo not given)
T/C (endpoint: mean survival time, dose: 75.0 mg/kg/injection, schedule: Q01DX001 (ip), vehicle: saline): 97 % of control
T/C (endpoint: mean survival time, dose: 150.0 mg/kg/injection, schedule: Q01DX001 (ip), vehicle: saline): 100 % of control

Cc1cc(N)c(C)c(C)c1O
T/C [1]: 90 % of control
T/C [8]: 98 % of control
T/C [4]: 88 % of control

OCCC1=CCCCC1
T/C [4]: 91 % of control
T/C [5]: 97 % of control
T/C [6]: 98 % of control

O=C(NC/C=C/Br)Nc1cccc2c1CCCC2
T/C [8]: 94 % of control
T/C (endpoint: mean survival time, dose: 100.0 mg/kg/injection, schedule: Q01DX001 (ip), vehicle: saline with Tween-80): 89 % of control
T/C [4]: 99 % of control
T/C (endpoint: mean survival time, dose: 200.0 mg/kg/injection, schedule: Q01DX001 (ip), vehicle: saline with Tween-80): 86 % of control
T/C [5]: 88 % of control

O=C(NC(CO)C(O)c1ccc(N=Nc2cccc3ccccc23)cc1)C(Cl)Cl (stereo not given)
T/C [4]: 100 % of control
T/C [5]: 101 % of control
T/C [6]: 101 % of control

C[N+](C)(C)CC(O)c1ccccc1 (stereo not given)
T/C [8]: 100 % of control
T/C [4]: 105 % of control
T/C [2]: 95 % of control
T/C [3]: 87 % of control

CN(C)C=Nc1c(Cl)cccc1Cl
T/C [17]: 100 % of control
T/C [9]: 103 % of control
T/C [15]: 97 % of control
T/C [16]: 106 % of control

CCCCCC(O)/C=C/Sc1n[nH]c(=O)[nH]c1=O (stereo not given)
T/C [11]: 104 % of control
T/C [12]: 94 % of control
T/C [13]: 98 % of control
T/C [14]: 90 % of control
T/C (endpoint: mean survival time, dose: 200.0 mg/kg/injection, schedule: Q01DX005 (ip), vehicle: distilled water + Tween-80): 93 % of control

CCN(CC)c1ccc(NC(=O)c2ccc(C(=O)Nc3ccc(N(CC)CC)cc3)cc2)cc1
T/C [9]: 89 % of control
T/C [15]: 92 % of control
T/C [16]: 92 % of control
